For the experiment, the system named is SARS-CoV-2 169 R. The format is cell-based.

As to `CN1CCN(C[C@H](O)CO[C@H]2CC[C@@]3(C)C(CCC4C3CC[C@]3(C)C(=O)CCC43)C2)CC1` (some centres unmarked) [LNB167], the “effect on viral load in 169 R-infected cultures (plaque assay)” value was “no reduction in viral load”.
Regarding `CN1CCN(C[C@@H](O)CO[C@H]2CC[C@@]3(C)C(CCC4C3CC[C@]3(C)C(=O)CCC43)C2)CC1` (some centres unmarked) [LNB169], the “effect on viral load in 169 R-infected cultures (plaque assay)” value is “no reduction in viral load”.

For the origin of these results see paper PMC9235892 (Virulence, 2022).
